From PubChem BioAssay AID1259408 (Genetic Toxicology Data Bank (GENE-TOX), 2018)
Active and inactive are the calls of the source. How the calls were made is not given here. Bridge positions count the residues as written; N and C are the ends. Square brackets hold non-standard residues; d marks the D form. Peptide text beside a SMILES is read from it. * marks the point of attachment. ξ: configuration not given here. Heptanoyl(5-Me) = CCC(C)CCCC(=O)*; ξThr(3R) = C[C@@H](O)C(N)C(=O)O; dDab = NCC[C@@H](N)C(=O)O; Dab = NCC[C@H](N)C(=O)O

Test system: GENE-TOX genotoxicity assays, various organisms and cells
Assay: GENE-TOX mutagenicity studies
Conditions: for call: Assay Type: In vivo carcinogenicity studies, Assay Code: CCGT
[1] = Species/Cell Type: Escherichia coli polA (W3119 vs P3478), Assay Type: Rec-assay, DNA effects (bacterial DNA repair), Assay Code: RE1-, Evaluation Type: Evaluation A (Pre-1980)
[2] = Species/Cell Type: Escherichia coli polA (W3110 vs P3478), Assay Type: Rec-assay, DNA effects (bacterial DNA repair), Assay Code: RE2-, Evaluation Type: Evaluation A (Pre-1980)
[3] = Species/Cell Type: Nonhuman, Evaluation Type: Evaluation A (Pre-1980)
[4] = Species/Cell Type: Salmonella typhimurium (one or more of the five standard strains: TA98, TA100, TA1535, TA1537, and TA1538), Assay Type: Histidine reverse gene mutation, Ames assay, Assay Code: SAL-, Evaluation Type: Evaluation A (Pre-1980)

CCC(C)CCCC(=O)N[C@@H](CCN)C(=O)N[C@H](C(=O)N[C@@H](CCN)C(=O)N[C@H]1CCNC(=O)C([C@@H](C)O)NC(=O)[C@@H](CCN)NC(=O)[C@H](CCN)NC(=O)[C@@H](CC(C)C)NC(=O)[C@@H](CC(C)C)NC(=O)[C@H](CCN)NC1=O)[C@@H](C)O (stereo partly drawn) ({Heptanoyl(5-Me)}-[Dab]T[Dab][Dab][Dab][dL][dL][Dab][dDab][ξThr(3R)]; lactam 4-C)
mutagenic call [1]: inactive; negative | mutagenic call (Species/Cell Type: Human lymphocytes, Assay Type: Sister-chromatid exchange (SCE) in vitro, Assay Code: SCL-, Evaluation Type: Evaluation B (Post-1980)): inactive; negative | mutagenic call (Species/Cell Type: Human, Assay Type: Sister-chromatid exchange (SCE) in vitro, Assay Code: SC1-, Evaluation Type: Evaluation B (Post-1980)): inactive; negative

CN1CCN(CCCN2c3ccccc3S(=O)c3ccccc32)CC1
mutagenic call (Species/Cell Type: Human lymphocytes, Assay Type: Sister-chromatid exchange (SCE) in vitro, Assay Code: SCLT, Evaluation Type: Evaluation B (Post-1980)): no conclusion | mutagenic call (Species/Cell Type: Human, Assay Type: Sister-chromatid exchange (SCE) in vitro, Assay Code: SC1T, Evaluation Type: Evaluation B (Post-1980)): no conclusion

CC1(C)O[C@@H]1COc1c2occc2cc2ccc(=O)oc12
mutagenic call (Species/Cell Type: Human lymphocytes, Assay Type: Sister-chromatid exchange (SCE) in vitro, Assay Code: SCL+D, Dose Response: With dose response, Evaluation Type: Evaluation B (Post-1980)): active; positive | mutagenic call (Species/Cell Type: Human, Assay Type: Sister-chromatid exchange (SCE) in vitro, Assay Code: SC1+D, Dose Response: With dose response, Evaluation Type: Evaluation B (Post-1980)): active; positive

O=C(N[C@H](CO)[C@H](O)c1ccc([N+](=O)[O-])cc1)C(Cl)Cl
mutagenic call (Species/Cell Type: Arabidopsis species, Assay Type: Gene mutation, Assay Code: ARM-, Evaluation Type: Evaluation A (Pre-1980)): inactive; negative | mutagenic call (Species/Cell Type: Bacillus subtilis (H17 vs M45), Assay Type: Rec-assay, spot test, DNA effects (bacterial DNA repair), Assay Code: REW-, Evaluation Type: Evaluation A (Pre-1980)): inactive; negative | mutagenic call (Species/Cell Type: Bacillus subtilis (H17 vs M45T), Assay Type: Rec-assay, spot test, DNA effects (bacterial DNA repair), Assay Code: REXT, Evaluation Type: Evaluation A (Pre-1980)): no conclusion | mutagenic call (Species/Cell Type: Drosophila melanogaster, Assay Type: Sex-linked recessive lethal gene mutation, Assay Code: SRLT, Evaluation Type: Evaluation A (Pre-1980)): no conclusion | mutagenic call (Species/Cell Type: Escherichia coli WP2, Assay Type: Tryptophan reverse gene mutation, Assay Code: WP2-, Evaluation Type: Evaluation A (Pre-1980)): inactive; negative | mutagenic call [2]: inactive; negative | mutagenic call [1]: inactive; negative | call [3]: no conclusion | mutagenic call (Species/Cell Type: Rodents, Sex: Male, Assay Type: Dominant lethal test, Assay Code: DLT+, Evaluation Type: Evaluation A (Pre-1980)): active; positive | mutagenic call [4]: inactive; negative

c1ccc2cc3ccccc3cc2c1
mutagenic call [2]: inactive; negative | mutagenic call (Species/Cell Type: Escherichia coli polA (W3119 vs P3478), Assay Type: Rec-assay, DNA effects (bacterial DNA repair), Assay Code: RE1T, Evaluation Type: Evaluation A (Pre-1980)): no conclusion | mutagenic call (Species/Cell Type: Fischer rat embryo (RLV/1706) cells, Assay Type: Cell transformation, viral enhanced, Assay Code: CTRT, Evaluation Type: Evaluation A (Pre-1980)): no conclusion | mutagenic call (Species/Cell Type: Human diploid fibroblasts, Assay Type: Unscheduled DNA synthesis (UDS) in vitro, DNA effects, Assay Code: UDH-*, Activation: With metabolic activation, Evaluation Type: Evaluation A (Pre-1980)): inactive; negative | mutagenic call (Species/Cell Type: Mammalian polychromatic erythrocytes, Assay Type: Micronucleus test, chromosome aberrations, Assay Code: MNTT, Evaluation Type: Evaluation A (Pre-1980)): no conclusion | mutagenic call (Species/Cell Type: Mouse (BALB/c-3T3) cells, Assay Type: Cell transformation, Assay Code: CTB-, Evaluation Type: Evaluation A (Pre-1980)): inactive; negative | mutagenic call (Species/Cell Type: Mouse embryo (AKR/ME) cells, Assay Type: Cell transformation, Assay Code: CTK-, Evaluation Type: Evaluation A (Pre-1980)): inactive; negative | mutagenic call (Species/Cell Type: Mouse, Sex: Male, Assay Type: Sperm morphology, Assay Code: SPI-, Evaluation Type: Evaluation A (Pre-1980)): inactive; negative | mutagenic call (Species/Cell Type: Nonhuman, Assay Type: Chromosome aberrations in vitro, Assay Code: CY&-, Evaluation Type: Evaluation A (Pre-1980)): inactive; negative | call [3]: no conclusion | mutagenic call (Species/Cell Type: Nonhuman, Assay Type: Sister-chromatid exchange (SCE) in vitro, Assay Code: SC2+D, Dose Response: With dose response, Evaluation Type: Evaluation B (Post-1980)): active; positive | mutagenic call (Species/Cell Type: Nonhuman, Assay Type: Sister-chromatid exchange (SCE) in vitro, Assay Code: SC2T, Evaluation Type: Evaluation A (Pre-1980)): no conclusion | mutagenic call (Species/Cell Type: Nonhuman, Assay Type: Sister-chromatid exchange (SCE) in vivo, Assay Code: SC3-, Evaluation Type: Evaluation A (Pre-1980)): inactive; negative | mutagenic call (Species/Cell Type: Nonhuman, Assay Type: Sister-chromatid exchange (SCE) in vivo, Assay Code: SC3T, Evaluation Type: Evaluation B (Post-1980)): no conclusion | mutagenic call (Species/Cell Type: Rat primary hepatocytes, Assay Type: Unscheduled DNA synthesis (UDS) in vitro, DNA effects, Assay Code: UDP-, Evaluation Type: Evaluation A (Pre-1980)): inactive; negative | mutagenic call (Species/Cell Type: Saccharomyces cerevisiae, Assay Type: Mitotic recombination or gene conversion, Assay Code: YEH-, Evaluation Type: Evaluation A (Pre-1980)): inactive; negative | mutagenic call [4]: inactive; negative | mutagenic call (Species/Cell Type: Salmonella typhimurium, Assay Type: Forward and reverse gene mutation, host-mediated assay, Assay Code: HMAT, Evaluation Type: Evaluation A (Pre-1980)): no conclusion | mutagenic call (Species/Cell Type: Syrian hamster embryo (SHE) cells, Assay Type: Cell transformation, clonal assay, Assay Code: CTC-, Evaluation Type: Evaluation A (Pre-1980)): inactive; negative
